Measurements: the METLIN SMRT retention time set (Domingo-Almenara et al. 2019)

Experiment: gradient 5% acetonitrile 3 min, to 50% in 2 min, to 85% in 15 min, held 3 min, 100 µL/min
Conditions: column: Zorbax Extend-C18 2.1 x 50 mm; eluents: water / acetonitrile, 0.1% formic acid
Outline: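 Retention times of pure standards were taken from adduct peaks that were selected by computer and manually inspected. Over 3 months, mixtures of ~100 molecules were run by HPLC–quadrupole time-of-flight mass spectrometry in positive and negative ionization mode. The Zorbax Extend-C18 column (2.1 × 50 mm, 1.8 μm) ran at 100 μL/min in water and acetonitrile, each containing 0.1% formic acid, with 40 μL dead volume and 900 μL dwell volume.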

Row | RP-LC retention time | Compound
1 | 801 s | CN1C(=O)c2cc(C(=O)N3CCN(c4ccccc4F)CC3)nn2CC1(C)C(=O)NC1CCCC1 (centres undefined)
2 | 1050 s | Cc1ccccc1-c1nc(-c2ccc3c(c2)nnn3C)no1
3 | 615 s | COC(=O)CC1CN=C(Nc2nc(C)c3ccccc3n2)NC1=O (centres undefined)
4 | 986 s | Cc1nnc(-c2cc(NC(=O)c3ccc(C(F)(F)F)cc3)c(C)s2)o1
5 | 854 s | COCCCNC(=O)C(C)n1c(=O)c(C(F)(F)F)nc2ccccc21 (centres undefined)
6 | 896 s | Cc1nc(N2CCOCC2)c2c(C(=O)Nc3ccc(F)cc3Cl)c(C)oc2n1
7 | 878 s | O=C(CC1CCN(C(=O)Nc2cccc(C(F)(F)F)c2)CC1)N1CCCCC1
8 | 1220 s | CCn1cc(-c2nc(C(=O)Nc3ccc(F)cc3F)cs2)c2cccnc21
9 | 569 s | Cc1nnc(N2CCC(C(=O)N3CCN(c4ccccn4)CC3)CC2)c2nn(-c3ccccc3)c(C)c12
10 | 942 s | Cc1nn2c(CNS(=O)(=O)c3cccc(Cl)c3C)c(-c3ccccc3)nc2s1
11 | 1230 s | CCn1ncc(NC(=O)COc2cccc(C)c2C)c(N2CCCCC2)c1=O
12 | 740 s | C=CCNC(=O)C1CCN(C(=O)Nc2ccc(NC(=O)Nc3ccc(C)c(C)c3)cc2)CC1
13 | 678 s | COCCn1cnc2c(-c3ccccc3)cn(CC(=O)NCC3CCCO3)c2c1=O (centres undefined)
14 | 966 s | Cn1c(=O)c(N2CCN(C(=O)c3ccc(F)c(Cl)c3)CC2)nc2ccccc21
15 | 907 s | COC(=O)c1ccccc1S(=O)(=O)N1CCc2c(c(-c3nnc(-c4ccccc4)o3)nn2C)C1
16 | 854 s | CC(C)c1ccc(NC(=O)Cc2nnc(-c3ccc4ncccc4c3)o2)cc1
17 | 559 s | CC(=O)N1CCCc2cc(S(N)(=O)=O)ccc21
18 | 875 s | CCC(=O)N1CCc2nc(N3CCN(C(=O)CCOC)CC3)sc2C1
19 | 595 s | Cn1cc(CCN2CCC(C(=O)N3CCCCCC3)CC2)c2cccnc21
20 | 717 s | O=C(C1=CN(c2ccc3c(c2)OCO3)c2ccccc2S1(=O)=O)N1CCOCC1
21 | 932 s | CCn1c(=O)sc2cc(S(=O)(=O)N3CCC(C(=O)NCc4ccc(C)cc4)CC3)ccc21
22 | 1020 s | Cc1cc(C)n(CCC(=O)N2CC(Oc3ccc(-c4nc(-c5ccccc5)no4)cc3)C2)n1

Row | RP-LC retention time | Compound
23 | 707 s | CC(C)c1cccc(Nc2nc3ccncc3n(C(C)C)c2=O)c1
24 | 683 s | O=S(=O)(Cc1ccc(Cl)cc1)N1CCC(CN2CCCCCC2)CC1
25 | 1190 s | COc1cccc(Cn2nc(-c3nc(-c4ccc(Cl)cc4)no3)ccc2=O)c1
26 | 788 s | CCSc1nnc(NC(=O)CCc2csc(NC(=O)c3cccs3)n2)s1
27 | 951 s | COc1ccc(NC(=O)c2nnc(C(=O)NCCc3c[nH]c4ccc(OC)cc34)s2)cc1
28 | 1340 s | CCCOc1nc2ccccc2nc1N1CCCC(C(=O)Nc2cccc(C(=O)OCC)c2)C1 (centres undefined)
29 | 942 s | Cc1nc(-c2cn(C)c3ncccc23)sc1C(=O)NCc1ccccc1Cl
30 | 1090 s | Cc1nc(-c2csc(S(=O)(=O)N3CCC(C(=O)Nc4ccc(C(C)C)cc4)CC3)c2)no1
31 | 809 s | CCCc1ccc(S(=O)(=O)N2CCC3(CC2)NCCN=C3NCc2ccccc2)cc1
32 | 770 s | O=C(NCCCn1ncccc1=O)c1cccc(-n2ccc3ccccc32)c1
33 | 924 s | Cc1noc(-c2ccc(OC3CN(C(=O)Cc4ccccc4)C3)cc2)n1
34 | 666 s | Oc1ccc(-c2nc3ncccn3c2Nc2ccc(Cl)cc2)cc1
35 | 837 s | Cn1cc(CC(=O)NCc2nc(-c3ccccc3)no2)c2ccccc21
36 | 782 s | CCN(C(=O)C1CCCN1S(=O)(=O)c1cc2c(cc1C)NC(=O)CO2)c1ccc(OC)cc1 (centres undefined)
37 | 910 s | COc1ccccc1NC(=O)NCCC1CCN(S(=O)(=O)c2ccccc2)CC1
38 | 904 s | Cn1ncc2c3ccccc3n(CC(=O)NCCc3ccco3)c2c1=O
39 | 889 s | CCn1ncc(NC(=O)COc2ccccc2C)c(N2CCOCC2)c1=O
40 | 769 s | COCCCNC(=O)c1ccc(N2CCCN(Cc3ccccc3C)C2=O)cc1
41 | 879 s | CCc1nnc(-c2ccc3ccn(CC(=O)Nc4cc(F)ccc4F)c3c2)o1
42 | 708 s | Cc1ccc(C)c(NC(=O)Cn2nc3n(c2=O)CCCC3)c1
43 | 878 s | Cc1ccc(S(=O)(=O)N2CCC(c3nc(C(=O)N(C)C)c(C)o3)CC2)cc1C

The remaining lines, values behind:

Row | Compound | RP-LC retention time
44 | CCn1nccc1-c1cccc(-c2noc(-c3ccccn3)n2)c1 | 897 s
45 | O=C(Nc1cccc(OCc2nnc(-c3ccc(F)cc3)o2)c1)C1CC(=O)N(c2ccccc2)C1 (centres undefined) | 895 s
46 | Cn1cc2c(N3CCSCC3)nc(C(=O)N3CCN(C4CCCC4)CC3)nc2n1 | 579 s
47 | c1ccc(-c2nnc(Cc3ccc4c(c3)OCO4)o2)cc1 | 894 s
48 | COc1ccccc1CNc1ncc(C(=O)O)c(-c2ccncc2)n1 | 638 s
49 | CCCC(C)C(=O)N1CC2CN(S(=O)(=O)c3ccccc3)CC(C1)O2 (centres undefined) | 807 s
50 | O=c1ccc(S(=O)(=O)N2CCOCC2)cn1Cc1ccccc1F | 723 s
51 | CC(NC(=O)c1ccco1)C(=O)NCc1nn(C(C)C)c2ccccc12 (centres undefined) | 712 s
52 | Cc1noc(C)c1CNC(=O)CCCc1ccccc1 | 760 s
53 | CCC(=O)N(C1CCOCC1)C1CCN(S(=O)(=O)c2cccc(Cl)c2)CC1 | 872 s
54 | COC(=O)c1c(-c2ccc(Cl)cc2)noc1N1CCN(c2ccccn2)CC1 | 1000 s
55 | Cc1ccc(CN2CC(Oc3ccc(-c4noc(-c5ccncc5)n4)cc3)C2)o1 | 681 s
56 | CSc1ncccc1C(=O)Nc1ccc2c(c1)CCC(=O)N2 | 638 s
57 | O=C(Cc1ccc(F)cc1)NCC1CC(=O)N(Cc2ccc(F)cc2)C1 (centres undefined) | 871 s
58 | O=C(NCCCN1CCN(c2ccccc2)CC1)c1ccc(F)cc1F | 590 s
59 | CC(C)Cn1c(=O)c(N2CCC(NC(=O)NCc3ccccc3)CC2)nc2ccccc21 | 980 s
60 | CCOC(=O)C1=C(CN(C)Cc2ccccc2)NC(=O)NC1c1cccs1 (centres undefined) | 642 s
61 | COc1ccc2c(c1)C1(CCN(S(=O)(=O)c3ccc(C#N)cc3)C1)C(=O)N2 (centres undefined) | 797 s
62 | N#Cc1ccc(CN2C[C@@H]3C(=O)N(CCN4CCc5ccccc5C4)C(=O)[C@@H]3C2)cc1 | 618 s
63 | CCc1nc(N)n(CC(=O)Nc2ccc(F)cc2)c(=O)c1C | 634 s
64 | CCC1(O)CCC12CCN(C(=O)CC1CCN(C(C)=O)CC1)CC2 (centres undefined) | 629 s
65 | CCOc1ccc(-c2noc(CN3C(=O)COc4ccc(C)cc43)n2)cc1OC | 1010 s
66 | CC(C)CN(CC1CCCO1)C(=O)CN1CC2=C(C1=O)C(c1ccccc1Cl)NC(=O)N2C (centres undefined) | 999 s

Row | Compound | RP-LC retention time
67 | CCn1cc(CCNC(=O)Nc2ccccc2Br)c2cccnc21 | 774 s
68 | Cc1cccc(NC(=O)N2CCC(c3nc(C(=O)N(C)C)c(C)o3)CC2)c1C | 697 s
69 | Cc1ccc2c(c1)C(=O)NC1(CCN(C(=O)Nc3ccc(C)c(C)c3)CC1)N2C | 796 s
70 | CCCCn1cc(S(=O)(=O)NCc2ccccn2)c2cccnc21 | 671 s
71 | CCOC(=O)c1c(C)c(-c2ccccc2)n(CC(=O)N2CCN(c3ccccn3)CC2)c1C | 729 s
72 | COC(=O)c1cccc(C(=O)Nc2cc(Cl)ccc2C)n1 | 999 s
73 | Cn1nc(CNC(=O)C2CC(=O)N(C3CCCCC3)C2)c2c1CCN(S(C)(=O)=O)C2 (centres undefined) | 645 s
74 | CCN1C(=O)Cc2cc(C(=O)N3CCN(c4ccccn4)CC3)ccc21 | 780 s
75 | Cn1nc(C(=O)N2CCCC(C(=O)NC3CC3)C2)c2c1CCN(C(=O)c1ccc(F)cc1)C2 (centres undefined) | 633 s
76 | COc1ccccc1C(=O)Oc1ccc(N(C)C2=NS(=O)(=O)c3ccccc32)cc1 | 910 s
77 | O=C(NCc1cccnc1)C1(c2ccccc2)CCOCC1 | 540 s
78 | Cc1cc(C)cc(C(=O)OC2C[C@H]3CC[C@@H](C2)N3C)c1 (some centres undefined) | 729 s
79 | COc1ccc(C)cc1NC(=O)C1CCCN(C(=O)C2Sc3ccccc3NC2=O)C1 (centres undefined) | 852 s
80 | Cc1ccc(CNC(=O)c2[nH]c(C)c(S(=O)(=O)N3CCCC3)c2C)cc1 | 851 s
81 | COc1ccc(N2CC(C(=O)Nc3cc(C)nn3C3CCS(=O)(=O)C3)CC2=O)cc1 (centres undefined) | 638 s
82 | COc1cccc(CNC(=O)c2nc3cccnc3n(CC(C)C)c2=O)c1 | 850 s
83 | CC(=O)Nc1c(-c2ccccn2)nsc1C(=O)N1CCC(C)CC1 | 849 s
84 | COc1ccc(OC)c(CNC(=O)CN2C(=O)CSc3cccn3-c3ccccc32)c1 | 914 s
85 | Cn1cc(C2=CCN(C(=O)c3cccc(F)c3)CC2)c2cccnc21 | 816 s
86 | CCOc1ccccc1NC(=O)Nc1ccc(CC(=O)NCC(F)(F)F)cc1 | 815 s
87 | CC(CC(=O)Nc1ccccc1Cl)S(=O)(=O)c1ccc2c(c1)NC(=O)CCS2 (centres undefined) | 761 s
88 | COC(=O)CNC(=O)N1CCCCCC1c1ccc(C)cc1 (centres undefined) | 852 s
89 | COc1ccc(NC(=O)C2CCCN(c3nccnc3Oc3ccccc3)C2)cc1Cl (centres undefined) | 1050 s
